Assay results published in PubChem BioAssay AID1919005 (Molecular Pharmacology Branch, DTP, NCI, 2023).
Several values for one entry are separate records, joined by “and”; a condition that tells them apart may be missing. Identical values can stand only once.

System: 855422-203-R-J1-PDC complex spheroid growth
Assay: Anticancer human tumor 855422-203-R-J1-PDC patient-derived bladder carcinoma cell line growth inhibition [AhR]
Conditions: for viability, T/C: stronger effect = lower value
How it was run: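 Spheroids combined tumor cells with HUVEC endothelial cells and human MSCs as stroma. AhR antagonists were paired with standard or investigational drugs, each dosed in half-log steps down from near clinical Cmax, or from 10 microM where Cmax was unknown.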

[1] = curve of first compound, second compound 0.1 µM
[2] = curve of first compound, second compound 0.316 µM
[3] = curve of first compound, second compound 1 µM
[4] = curve of first compound, second compound 3.16 µM
[5] = curve of first compound, second compound 10 µM
[6] = second compound 0.1 µM, first compound 0.000949 µM
[7] = second compound 0.1 µM, first compound 0.003 µM
[8] = second compound 0.1 µM, first compound 0.00949 µM
[9] = second compound 0.1 µM, first compound 0.03 µM
[10] = second compound 0.1 µM, first compound 0.0949 µM
[11] = second compound 0.1 µM, first compound 0.3 µM
[12] = second compound 0.316 µM, first compound 0.000949 µM
[13] = second compound 0.316 µM, first compound 0.003 µM
[14] = second compound 0.316 µM, first compound 0.00949 µM
[15] = second compound 0.316 µM, first compound 0.03 µM
[16] = second compound 0.316 µM, first compound 0.0949 µM
[17] = second compound 0.316 µM, first compound 0.3 µM
[18] = second compound 1 µM, first compound 0.000949 µM
[19] = second compound 1 µM, first compound 0.003 µM
[20] = second compound 1 µM, first compound 0.00949 µM
[21] = second compound 1 µM, first compound 0.03 µM
[22] = second compound 1 µM, first compound 0.0949 µM
[23] = second compound 1 µM, first compound 0.3 µM
[24] = second compound 3.16 µM, first compound 0.000949 µM
[25] = second compound 3.16 µM, first compound 0.003 µM
[26] = second compound 3.16 µM, first compound 0.00949 µM
[27] = second compound 3.16 µM, first compound 0.03 µM
[28] = second compound 3.16 µM, first compound 0.0949 µM
[29] = second compound 3.16 µM, first compound 0.3 µM
[30] = second compound 10 µM, first compound 0.000949 µM
[31] = second compound 10 µM, first compound 0.003 µM
[32] = second compound 10 µM, first compound 0.00949 µM
[33] = second compound 10 µM, first compound 0.03 µM
[34] = second compound 10 µM, first compound 0.0949 µM
[35] = second compound 10 µM, first compound 0.3 µM
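Also: spheroids exposed to agents for seven days before readout.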
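For viability, T/C in this document: percent of DMSO vehicle control luminescence viability.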

| Compound | IC50 [1] | IC50 [2] | IC50 [3] | IC50 [4] | IC50 [5] | viability, T/C [6] | viability, T/C [7] | viability, T/C [8] | viability, T/C [9] | viability, T/C [10] | viability, T/C [11] | viability, T/C [12] | viability, T/C [13] | viability, T/C [14] | viability, T/C [15] | viability, T/C [16] | viability, T/C [17] | viability, T/C [18] | viability, T/C [19] | viability, T/C [20] | other results |
| --- | --- | --- | --- | --- | --- | --- | --- | --- | --- | --- | --- | --- | --- | --- | --- | --- | --- | --- | --- | --- | --- |
| CC(C)CC(NC(=O)C(Cc1ccccc1)NC(=O)c1cnccn1)B(O)O (stereo not drawn) + Cc1ccccc1N=Nc1ccc(NC(=O)c2ccnn2C)c(C)c1 | 5.94 nM | 5.86 nM | 5.66 nM | 5.19 nM | 4.16 nM | 108% | 135% | 0.86% | 0.84% | 1.35% | 0.12% | 118% | 121% | 0.21% | 0.02% | 0.02% | 0.1% | 108% | 115% | 0.18% | viability, T/C [21]: 0.04%; viability, T/C [22]: 0.02%; viability, T/C [23]: 0.11%; viability, T/C [24]: 100%; viability, T/C [25]: 94.6%; viability, T/C [26]: 0.91%; viability, T/C [27]: 0.03%; viability, T/C [28]: 0.09%; viability, T/C [29]: 0.09%; viability, T/C [30]: 85%; viability, T/C [31]: 69.6%; viability, T/C [32]: 0.28%; viability, T/C [33]: 0.11%; viability, T/C [34]: 0.12%; viability, T/C [35]: 0.16% |
| COc1cc(Nc2ncc3c(n2)-c2ccc(Cl)cc2C(c2c(F)cccc2OC)=NC3)ccc1C(=O)O |  |  |  |  |  |  |  |  |  |  |  |  |  |  |  |  |  |  |  |  | viability, T/C (compound 0.0316 µM): 102% and 109% and 95.2%; viability, T/C (compound 0.1 µM): 105% and 114% (2×); viability, T/C (compound 0.316 µM): 60.7% and 90.8% and 66.4%; viability, T/C (compound 1 µM): 55.4% and 89% and 51.6%; viability, T/C (compound 3.16 µM): 47.3% and 82.6% and 48.8%; viability, T/C (compound 10 µM): 45.4% and 68.6% and 47% |
| Nc1ncn(C2CC(O)C(CO)S2)c(=O)n1 (stereo not drawn) + Cc1cncc(-c2nc(NCCc3c[nH]c4ccccc34)c3ncn(C(C)C)c3n2)c1 | > 300 nM | > 300 nM | > 300 nM | 1.28 nM | < 0.949 nM | 92.3% | 101% | 92.9% | 90.4% | 84.7% | 72.2% | 90.1% | 83.8% | 77.4% | 85% | 78.2% | 69.8% | 74.1% | 88.2% | 77.3% | viability, T/C [21]: 73.6%; viability, T/C [22]: 79.1%; viability, T/C [23]: 77.1%; viability, T/C [24]: 49.1%; viability, T/C [25]: 51.8%; viability, T/C [26]: 41.9%; viability, T/C [27]: 25.1%; viability, T/C [28]: 42%; viability, T/C [29]: 37.5%; viability, T/C [30]: 28.3%; viability, T/C [31]: 26.9%; viability, T/C [32]: 19.7%; viability, T/C [33]: 15.5%; viability, T/C [34]: 22.8%; viability, T/C [35]: 24.3% |
| CCc1c2c(nc3ccc(O)cc13)-c1cc3c(c(=O)n1C2)COC(=O)[C@]3(O)CC + CC(CO)NC(=O)c1cc(-c2ccc(Cl)cc2)nn(-c2cnn(C)c2)c1=O | 5.26 nM | 4.51 nM | 3.42 nM | 1.92 nM | 1.48 nM | 95.5% | 78.9% | 19.4% | 13.2% | 9.5% | 6.28% | 85.6% | 68.7% | 15.6% | 12.3% | 6.86% | 4.21% | 86.5% | 54.7% | 13.9% | viability, T/C [21]: 11%; viability, T/C [22]: 6.82%; viability, T/C [23]: 4.24%; viability, T/C [24]: 72.2%; viability, T/C [25]: 36.3%; viability, T/C [26]: 12.8%; viability, T/C [27]: 10.2%; viability, T/C [28]: 6.61%; viability, T/C [29]: 4.22%; viability, T/C [30]: 65.5%; viability, T/C [31]: 25.4%; viability, T/C [32]: 12.6%; viability, T/C [33]: 9.84%; viability, T/C [34]: 6.11%; viability, T/C [35]: 4.31% |
| Nc1ncn(C2CC(O)C(CO)S2)c(=O)n1 (stereo not drawn) + CC(CO)NC(=O)c1cc(-c2ccc(Cl)cc2)nn(-c2cnn(C)c2)c1=O | > 300 nM | > 300 nM | > 300 nM | > 300 nM | > 300 nM | 91.9% | 90.2% | 88.3% | 93.4% | 96.7% | 87.4% | 97.3% | 93.3% | 99.4% | 95.2% | 87.6% | 82.2% | 99.9% | 90.9% | 101% | viability, T/C [21]: 92.1%; viability, T/C [22]: 101%; viability, T/C [23]: 86.7%; viability, T/C [24]: 91.8%; viability, T/C [25]: 94.5%; viability, T/C [26]: 85.3%; viability, T/C [27]: 101%; viability, T/C [28]: 90.9%; viability, T/C [29]: 80.4%; viability, T/C [30]: 92.5%; viability, T/C [31]: 98%; viability, T/C [32]: 87.3%; viability, T/C [33]: 93.5%; viability, T/C [34]: 89.8%; viability, T/C [35]: 80.3% |
| CCN(c1cc(-c2ccc(CN3CCOCC3)cc2)cc(C(=O)NCc2c(C)cc(C)[nH]c2=O)c1C)C1CCOCC1 |  |  |  |  |  |  |  |  |  |  |  |  |  |  |  |  |  |  |  |  | viability, T/C (compound 0.00949 µM): 105% (2×) and 109%; viability, T/C (compound 0.03 µM): 100% and 102% and 108%; viability, T/C (compound 0.0949 µM): 100% and 105% and 99.7%; viability, T/C (compound 0.3 µM): 94.2% and 98.2% and 97.3%; viability, T/C (compound 0.949 µM): 96.8% and 91.9% and 88.2%; viability, T/C (compound 3 µM): 78.1% and 92.2% and 80.9%; IC50 (curve of compound): > 3000 nM |
